Experimental data: US20100240589A1, “DIASTEREOMERIC PEPTIDES USEFUL AS INHIBITORS OF MEMBRANE PROTEIN ASSEMBLY” (YEDA RESEARCH AND DEVELOPMENT CO., LTD. AT THE WEIZMANN …, priority 2003, published 2010)

Test system: CP362 bacteria overexpressing the Tar receptor (pNT201)
Assay: Swarm assay on TB semi-solid agar (chemotaxis)
Type: cell-based, Escherichia coli
Settings: 20 μM peptide, 35° C.

Sequence	expansion speed / chemotactic behavior of the bacteria
KKKMVLGVFALLQLISGSLKK [Tar-1 all-L, peptide corresponding to the transmembrane domain 1 of Tar, reference compound]	significantly reduced
KKKMVLGVFALLFLIGGSLKK [F/G mutant peptide]	no significant effect
